Read-outs that look alike come from different tables or passages of the source.
Tests used:
Tt_Hbd = target: T1, Tt_Hbd (Thermoanaerobacterium thermosaccharolyticum, UniProt P77851, D31A/I32R, form not given); test: NAD(P)H oxidation, A340; assay type: biochemical; settings: acetoacetyl-CoA as substrate, 100 mM MOPS-KOH pH 7.5, 55 °C
T1 construct: gene hbd; His-tagged (vector pD861-CH), codon-optimised, expressed in E. coli BL21(DE3)
Text: NAD(P)H oxidation, A340 on Tt_Hbd

Ts_Bad = tested on: T2, Ts_Bad; test: NADH oxidation, A340; assay type: biochemical, Thermoanaerobacter sp. (strain X514); settings: 0.3 mM NADH, 100 mM MOPS-KOH pH 7.5, 55 °C, anaerobic
T2 construct: gene bad; His-tagged (vector pD861-CH), codon-optimised, expressed in E. coli BL21(DE3), purified anaerobically
Text: NADH oxidation, A340 on Ts_Bad

T1 sequence (P77851 whole entry D31A/I32R, form open): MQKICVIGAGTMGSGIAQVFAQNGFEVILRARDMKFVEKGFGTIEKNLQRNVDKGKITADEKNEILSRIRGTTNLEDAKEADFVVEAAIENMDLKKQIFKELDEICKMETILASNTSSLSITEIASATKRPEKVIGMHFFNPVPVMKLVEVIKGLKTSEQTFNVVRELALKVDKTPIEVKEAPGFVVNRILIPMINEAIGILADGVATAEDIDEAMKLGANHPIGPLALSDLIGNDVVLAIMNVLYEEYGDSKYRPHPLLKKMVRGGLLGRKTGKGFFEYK

Row | Km (Ts_Bad) [µM] | SMILES | other results
1 | – | NC(=O)C1=CN([C@@H]2O[C@H](COP(=O)(O)OP(=O)(O)OC[C@H]3O[C@@H](n4cnc5c(N)ncnc54)[C@H](O)[C@@H]3O)[C@@H](O)[C@H]2O)C=CC1 [NADH] | Km (Tt_Hbd; read-out: NADH / Km): 110 ± 20 µM
2 | 90 ± 10 | CC(=O)SCCNC(=O)CCNC(=O)[C@H](O)C(C)(C)COP(=O)(O)OP(=O)(O)OC[C@H]1O[C@@H](n2cnc3c(N)ncnc32)[C@H](O)[C@@H]1OP(=O)(O)O [Acetyl-CoA] | –
3 | – | NC(=O)C1=CN([C@@H]2O[C@H](COP(=O)(O)OP(=O)(O)OC[C@H]3O[C@@H](n4cnc5c(N)ncnc54)[C@H](OP(=O)(O)O)[C@@H]3O)[C@@H](O)[C@H]2O)C=CC1 [NADPH] | Km (Tt_Hbd; read-out: NADPH / Km): 30 ± 10 µM
4 | 200 ± 100 | CCCC(=O)SCCNC(=O)CCNC(=O)[C@H](O)C(C)(C)COP(=O)(O)OP(=O)(O)OC[C@H]1O[C@@H](n2cnc3c(N)ncnc32)[C@H](O)[C@@H]1OP(=O)(O)O [Butyryl-CoA] | –

Source: paper PMC6652007, “Metabolic engineering of Clostridium thermocellum for n-butanol production from cellulose” (Biotechnology for Biofuels, 2019)
